{"source": "paper PMC5956890", "about": "(Journal of medicinal chemistry, 2017)", "key": {"PPARδ [1]": {"molecular_target": "T1, PPARδ (Homo sapiens, UniProt Q03181)", "T1 sequence (Q03181 211-439 limits assumed)": "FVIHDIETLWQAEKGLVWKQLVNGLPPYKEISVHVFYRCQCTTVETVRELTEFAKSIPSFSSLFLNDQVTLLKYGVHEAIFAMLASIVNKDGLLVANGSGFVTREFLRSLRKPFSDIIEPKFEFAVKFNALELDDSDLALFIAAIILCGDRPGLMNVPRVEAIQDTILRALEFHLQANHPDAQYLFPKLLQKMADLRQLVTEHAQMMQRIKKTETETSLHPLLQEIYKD", "experiment": "TR-FRET PPARδ coactivator assay", "type": "biochemical", "details": "compound alone"}, "PPARγ [2]": {"molecular_target": "T2, PPARγ (Homo sapiens, UniProt P37231)", "T2 sequence (P37231 1-505)": "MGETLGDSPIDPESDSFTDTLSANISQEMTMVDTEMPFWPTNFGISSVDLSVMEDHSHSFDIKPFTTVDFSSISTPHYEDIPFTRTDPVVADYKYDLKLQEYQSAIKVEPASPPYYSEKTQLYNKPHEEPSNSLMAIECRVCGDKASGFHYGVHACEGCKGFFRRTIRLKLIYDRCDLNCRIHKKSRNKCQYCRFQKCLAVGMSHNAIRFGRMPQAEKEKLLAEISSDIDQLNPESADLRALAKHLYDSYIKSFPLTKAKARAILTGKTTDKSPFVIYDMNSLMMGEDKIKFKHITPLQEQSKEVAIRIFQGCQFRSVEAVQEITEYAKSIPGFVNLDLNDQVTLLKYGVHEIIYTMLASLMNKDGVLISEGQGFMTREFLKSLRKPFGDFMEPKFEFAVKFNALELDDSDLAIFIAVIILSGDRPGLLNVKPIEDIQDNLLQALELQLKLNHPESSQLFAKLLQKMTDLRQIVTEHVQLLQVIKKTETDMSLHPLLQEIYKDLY", "experiment": "luciferase-reporter PPARγ transactivation assay in CV-1 cells", "type": "cell-based", "details": "30 µM"}, "[3]": {"tested_on": "ANGPTL4 and PDK4 gene transcription", "experiment": "Q-RT-PCR of ANGPTL4 and PDK4 mRNA in hBM-MSCs", "type": "cell-based, human", "details": "3rd day after induction of adipogenesis"}, "PPARα": {"molecular_target": "T3, PPARα (Homo sapiens, UniProt Q07869)", "T3 sequence (Q07869 200-468 limits assumed)": "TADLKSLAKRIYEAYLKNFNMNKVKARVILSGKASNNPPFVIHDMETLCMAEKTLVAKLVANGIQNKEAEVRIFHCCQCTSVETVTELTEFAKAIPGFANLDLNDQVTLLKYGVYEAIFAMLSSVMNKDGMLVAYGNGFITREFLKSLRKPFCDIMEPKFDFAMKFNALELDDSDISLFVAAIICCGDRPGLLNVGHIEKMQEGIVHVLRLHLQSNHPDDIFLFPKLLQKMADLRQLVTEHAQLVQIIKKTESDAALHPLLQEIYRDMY", "experiment": "TR-FRET competitive binding assay PPARα", "details": "up to 20 µM"}, "[4]": {"tested_on": "STZ-induced diabetic C57BL/6J mice", "experiment": "STZ-induced diabetes mouse model", "type": "in vivo", "details": "oral 20 mg/kg for 5 days, male C57BL/6J"}, "PPARδ [5]": {"molecular_target": "T4, PPARδ (Homo sapiens, UniProt Q03181)", "T4 sequence (Q03181 1-441)": "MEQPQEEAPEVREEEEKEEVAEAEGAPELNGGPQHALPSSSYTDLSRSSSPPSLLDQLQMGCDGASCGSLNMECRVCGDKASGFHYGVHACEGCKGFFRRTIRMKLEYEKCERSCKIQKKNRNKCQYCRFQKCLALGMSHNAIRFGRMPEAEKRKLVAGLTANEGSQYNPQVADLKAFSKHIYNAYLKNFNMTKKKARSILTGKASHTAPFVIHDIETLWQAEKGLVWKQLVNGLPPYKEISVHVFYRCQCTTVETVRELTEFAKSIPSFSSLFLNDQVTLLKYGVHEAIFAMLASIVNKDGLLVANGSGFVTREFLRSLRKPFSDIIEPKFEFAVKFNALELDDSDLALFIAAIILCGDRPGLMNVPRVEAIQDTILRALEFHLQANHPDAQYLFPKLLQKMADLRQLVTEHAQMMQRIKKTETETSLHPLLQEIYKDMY", "experiment": "TR-FRET competitive binding assay PPARδ", "details": "concentration-response"}, "PPARγ [6]": {"molecular_target": "T5, PPARγ (Homo sapiens, UniProt P37231)", "T5 sequence (P37231 235-505 limits assumed)": "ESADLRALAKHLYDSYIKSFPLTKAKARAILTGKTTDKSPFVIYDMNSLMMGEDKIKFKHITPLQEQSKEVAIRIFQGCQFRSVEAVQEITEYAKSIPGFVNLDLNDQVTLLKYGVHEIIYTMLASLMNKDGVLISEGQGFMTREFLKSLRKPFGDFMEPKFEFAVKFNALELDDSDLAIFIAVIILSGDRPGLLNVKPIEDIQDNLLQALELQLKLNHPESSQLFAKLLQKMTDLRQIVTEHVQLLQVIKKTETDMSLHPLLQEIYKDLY", "experiment": "TR-FRET competitive binding assay PPARγ", "details": "concentration-response"}, "hBM-MSCs": {"tested_on": "hBM-MSCs", "experiment": "adiponectin production during adipogenesis in hBM-MSCs", "details": "20 µM"}, "PPARδ [7]": {"molecular_target": "T1, PPARδ", "experiment": "TR-FRET PPARδ corepressor assay", "type": "biochemical", "details": "SMRT-ID2 peptide"}}, "note": "Entries after “also recorded” stand apart in the source; their conditions may differ.", "data": [{"compound": "O[C@@H]1[C@H](O)CS[C@H]1n1cnc2c(NCc3cccc(I)c3)nc(Cl)nc21", "note": "[Compound 3a, (2R,3R,4S)-2-(2-Chloro-6-((3-iodobenzyl)amino)-9H-purin-9-yl)tetrahydrothiophene-3,4-diol]", "values": [{"measurement": "recruitment of labeled coactivator peptide to PPARδ", "setting": "PPARδ [1]", "value": "no effect on the recruitment of the labeled coactivator peptide"}, {"measurement": "PPARγ transactivation compared to troglitazone", "setting": "PPARγ [2]", "value": "did not achieve maximal PPARγ transactivation activity"}, {"measurement": "ANGPTL4 mRNA level", "setting": "[3]", "value": "did not affect ANGPTL4 and PDK4 mRNA levels"}, {"measurement": "PDK4 mRNA level", "setting": "[3]", "value": "did not affect ANGPTL4 and PDK4 mRNA levels"}, {"measurement": "replacement of labeled PPARα ligand binding", "setting": "PPARα", "value": "≤ 50", "unit": "%"}, {"measurement": "serum lactate levels", "setting": "[4]", "value": "tended to decrease the serum lactate levels"}, {"measurement": "serum triglyceride levels", "setting": "[4]", "value": "downregulated serum triglyceride levels"}, {"measurement": "serum glucose levels", "setting": "[4]; 20 mg/kg", "value": "significantly decreased serum glucose levels; also recorded: dose-dependent"}, {"measurement": "PPARδ binding activity", "setting": "PPARδ [5]", "value": "maximal PPARδ binding activity"}, {"measurement": "PPARγ binding activity", "setting": "PPARγ [6]", "value": "significant competitive binding activity"}, {"measurement": "rank as promoter of adipogenesis among tested A3 AR agonists and antagonists", "setting": "hBM-MSCs", "value": "most potent promoter of adipogenesis"}, {"measurement": "interaction between PPARδ and corepressor peptide", "setting": "PPARδ [7]", "value": "promotion of the interaction between PPARδ and corepressor peptide"}]}]}
